According to article doi:10.1101/2021.04.08.439011v1 (biorxiv, 2021):
Read-outs that look alike come from different tables or passages of the source.

Assays:
ALK = ALK (Homo sapiens, UniProt Q9UM73); conditions: 1 µM; binder
CAMK1G = CAMK1G (Homo sapiens, UniProt Q96NX5); conditions: 1 µM; binder
CAMK2G = CAMK2G (Homo sapiens, UniProt Q13555); conditions: 1 µM; binder
CAMKK2 = CAMKK2 (Homo sapiens, UniProt Q96RR4); conditions: 1 µM; binder
CHEK1 = CHEK1 (Homo sapiens, UniProt O14757); conditions: 1 µM; binder
CHEK1, sequence (O14757 whole entry): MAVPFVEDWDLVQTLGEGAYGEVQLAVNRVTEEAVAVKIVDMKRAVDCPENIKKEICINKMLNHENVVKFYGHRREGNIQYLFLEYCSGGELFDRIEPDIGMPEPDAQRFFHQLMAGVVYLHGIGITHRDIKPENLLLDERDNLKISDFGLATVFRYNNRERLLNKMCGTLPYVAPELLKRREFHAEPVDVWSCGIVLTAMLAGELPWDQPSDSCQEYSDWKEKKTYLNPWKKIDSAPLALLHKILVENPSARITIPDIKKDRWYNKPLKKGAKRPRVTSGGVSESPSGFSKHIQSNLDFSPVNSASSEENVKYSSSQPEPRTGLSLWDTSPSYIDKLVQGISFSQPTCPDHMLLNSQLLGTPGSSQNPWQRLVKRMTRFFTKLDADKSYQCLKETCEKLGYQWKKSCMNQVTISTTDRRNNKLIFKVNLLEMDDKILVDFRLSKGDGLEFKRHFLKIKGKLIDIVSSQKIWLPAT

FLT3(D835Y) = FLT3(D835Y) (Homo sapiens, UniProt P36888, D835Y); conditions: 1 µM; binder
IRAK1 = IRAK1 (Homo sapiens, UniProt P51617); conditions: 1 µM; binder
LKB1 = LKB1 (Homo sapiens, UniProt Q15831); conditions: 1 µM; binder
MAP3K1 = MAP3K1 (Homo sapiens, UniProt Q13233); conditions: 1 µM; binder
MEK2 = MEK2 (Homo sapiens, UniProt P36507); conditions: 1 µM; binder
MEK2, sequence (P36507 whole entry): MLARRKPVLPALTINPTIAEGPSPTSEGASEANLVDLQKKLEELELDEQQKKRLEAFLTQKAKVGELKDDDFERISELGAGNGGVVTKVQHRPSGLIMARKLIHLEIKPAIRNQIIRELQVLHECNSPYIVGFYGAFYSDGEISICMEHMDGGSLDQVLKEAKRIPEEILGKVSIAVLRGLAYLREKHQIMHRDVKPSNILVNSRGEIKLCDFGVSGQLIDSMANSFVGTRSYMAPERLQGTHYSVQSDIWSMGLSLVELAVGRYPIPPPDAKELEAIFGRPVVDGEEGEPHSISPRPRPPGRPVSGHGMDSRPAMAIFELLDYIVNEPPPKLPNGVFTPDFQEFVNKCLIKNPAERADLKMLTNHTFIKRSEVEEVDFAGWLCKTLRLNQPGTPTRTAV

MST1R = MST1R (Homo sapiens, UniProt Q04912); conditions: 1 µM; binder
MST2 = MST2 (Homo sapiens, UniProt Q13188); conditions: 1 µM; binder
NEK10 = NEK10 (Homo sapiens, UniProt Q6ZWH5); conditions: 1 µM; binder
NEK2 = NEK2 (Homo sapiens, UniProt P51955); conditions: 1 µM; binder
NEK4 = NEK4 (Homo sapiens, UniProt P51957); conditions: 1 µM; binder
OSR1 = OSR1 (Homo sapiens, UniProt O95747); conditions: 1 µM; binder
PAK2 = PAK2 (Homo sapiens, UniProt Q13177); conditions: 1 µM; binder
PHKG1 = PHKG1 (Homo sapiens, UniProt Q16816); conditions: 1 µM; binder
PIK3CA(E545K) = PIK3CA(E545K) (Homo sapiens, UniProt P42336, E545K); conditions: 1 µM; binder
PIK3CA(E545K), sequence (P42336 whole entry E545K): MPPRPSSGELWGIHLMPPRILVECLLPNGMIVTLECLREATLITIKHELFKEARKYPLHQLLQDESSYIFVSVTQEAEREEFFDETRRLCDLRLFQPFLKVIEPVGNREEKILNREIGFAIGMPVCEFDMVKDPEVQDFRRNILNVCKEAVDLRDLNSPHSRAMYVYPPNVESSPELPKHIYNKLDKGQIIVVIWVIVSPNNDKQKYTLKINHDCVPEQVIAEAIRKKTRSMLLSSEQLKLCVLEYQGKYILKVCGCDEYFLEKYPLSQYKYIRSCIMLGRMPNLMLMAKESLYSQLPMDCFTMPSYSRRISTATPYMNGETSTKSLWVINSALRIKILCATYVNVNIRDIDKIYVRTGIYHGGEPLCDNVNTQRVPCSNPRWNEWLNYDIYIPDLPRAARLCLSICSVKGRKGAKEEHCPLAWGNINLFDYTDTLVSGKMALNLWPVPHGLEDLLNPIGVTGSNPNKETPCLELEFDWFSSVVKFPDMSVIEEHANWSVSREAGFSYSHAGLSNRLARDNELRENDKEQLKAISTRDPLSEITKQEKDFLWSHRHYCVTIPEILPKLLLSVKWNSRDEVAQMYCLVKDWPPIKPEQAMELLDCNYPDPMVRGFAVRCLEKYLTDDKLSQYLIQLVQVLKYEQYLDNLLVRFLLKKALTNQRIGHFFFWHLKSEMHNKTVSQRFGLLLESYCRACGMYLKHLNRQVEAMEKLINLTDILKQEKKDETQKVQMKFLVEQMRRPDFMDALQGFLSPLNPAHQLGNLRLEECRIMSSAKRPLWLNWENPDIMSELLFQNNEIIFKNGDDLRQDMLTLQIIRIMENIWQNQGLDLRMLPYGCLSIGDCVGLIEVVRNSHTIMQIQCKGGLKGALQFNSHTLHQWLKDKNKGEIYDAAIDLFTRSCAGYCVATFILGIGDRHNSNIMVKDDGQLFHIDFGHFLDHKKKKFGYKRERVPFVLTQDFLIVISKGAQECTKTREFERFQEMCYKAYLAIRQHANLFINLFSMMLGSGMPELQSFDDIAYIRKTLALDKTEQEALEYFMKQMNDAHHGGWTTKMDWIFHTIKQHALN

PIK3CB = PIK3CB (Homo sapiens, UniProt P42338); conditions: 1 µM; binder
PIP4K2B = PIP4K2B (Homo sapiens, UniProt P78356); conditions: 1 µM; binder
PLK1 = PLK1 (Homo sapiens, UniProt P53350); conditions: 1 µM; binder
PYK2 = PYK2 (Homo sapiens, UniProt Q14289); conditions: 1 µM; binder
ROCK1 = ROCK1 (Homo sapiens, UniProt Q13464); conditions: 1 µM; binder
RPS6KA1 = RPS6KA1 (Homo sapiens, UniProt Q15418); conditions: binder
RPS6KA1, sequence (Q15418 whole entry): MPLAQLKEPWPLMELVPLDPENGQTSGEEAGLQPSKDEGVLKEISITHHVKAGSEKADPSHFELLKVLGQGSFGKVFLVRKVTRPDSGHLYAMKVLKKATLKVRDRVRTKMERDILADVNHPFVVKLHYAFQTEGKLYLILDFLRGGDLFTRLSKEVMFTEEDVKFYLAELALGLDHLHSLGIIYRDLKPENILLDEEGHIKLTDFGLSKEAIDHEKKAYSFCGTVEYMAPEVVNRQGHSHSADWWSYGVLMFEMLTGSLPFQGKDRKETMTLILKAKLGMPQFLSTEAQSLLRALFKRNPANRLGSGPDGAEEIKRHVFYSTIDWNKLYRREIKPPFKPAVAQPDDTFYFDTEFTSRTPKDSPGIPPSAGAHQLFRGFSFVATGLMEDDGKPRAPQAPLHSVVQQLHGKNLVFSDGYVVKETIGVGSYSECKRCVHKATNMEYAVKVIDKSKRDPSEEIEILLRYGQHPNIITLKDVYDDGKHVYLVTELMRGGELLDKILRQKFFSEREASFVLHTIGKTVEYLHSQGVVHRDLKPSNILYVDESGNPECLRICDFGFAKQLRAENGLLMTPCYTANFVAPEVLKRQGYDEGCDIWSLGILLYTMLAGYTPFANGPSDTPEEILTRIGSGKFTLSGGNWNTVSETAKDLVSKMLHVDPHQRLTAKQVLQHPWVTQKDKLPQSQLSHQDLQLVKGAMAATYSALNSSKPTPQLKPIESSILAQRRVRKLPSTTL

SBK1 = SBK1 (Homo sapiens, UniProt Q52WX2); conditions: 1 µM; binder
SBK1, sequence (Q52WX2 whole entry): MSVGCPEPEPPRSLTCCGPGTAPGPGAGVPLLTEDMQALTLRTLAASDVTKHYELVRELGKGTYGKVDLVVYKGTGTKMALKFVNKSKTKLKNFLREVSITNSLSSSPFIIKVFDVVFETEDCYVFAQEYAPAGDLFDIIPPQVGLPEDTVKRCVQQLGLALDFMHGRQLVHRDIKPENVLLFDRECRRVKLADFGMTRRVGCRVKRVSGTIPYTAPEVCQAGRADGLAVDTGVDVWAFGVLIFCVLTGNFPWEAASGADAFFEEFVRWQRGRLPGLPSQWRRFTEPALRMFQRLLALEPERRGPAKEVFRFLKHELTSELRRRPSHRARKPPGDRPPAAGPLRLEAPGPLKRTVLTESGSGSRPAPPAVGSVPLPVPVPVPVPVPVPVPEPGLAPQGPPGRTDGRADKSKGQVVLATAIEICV

STK39 = STK39 (Homo sapiens, UniProt Q9UEW8); conditions: 1 µM; binder
TXK = TXK (Homo sapiens, UniProt P42681); conditions: 1 µM; binder
TYK2 = TYK2 (Homo sapiens, UniProt P29597); conditions: binder
TYK2, sequence (P29597 whole entry): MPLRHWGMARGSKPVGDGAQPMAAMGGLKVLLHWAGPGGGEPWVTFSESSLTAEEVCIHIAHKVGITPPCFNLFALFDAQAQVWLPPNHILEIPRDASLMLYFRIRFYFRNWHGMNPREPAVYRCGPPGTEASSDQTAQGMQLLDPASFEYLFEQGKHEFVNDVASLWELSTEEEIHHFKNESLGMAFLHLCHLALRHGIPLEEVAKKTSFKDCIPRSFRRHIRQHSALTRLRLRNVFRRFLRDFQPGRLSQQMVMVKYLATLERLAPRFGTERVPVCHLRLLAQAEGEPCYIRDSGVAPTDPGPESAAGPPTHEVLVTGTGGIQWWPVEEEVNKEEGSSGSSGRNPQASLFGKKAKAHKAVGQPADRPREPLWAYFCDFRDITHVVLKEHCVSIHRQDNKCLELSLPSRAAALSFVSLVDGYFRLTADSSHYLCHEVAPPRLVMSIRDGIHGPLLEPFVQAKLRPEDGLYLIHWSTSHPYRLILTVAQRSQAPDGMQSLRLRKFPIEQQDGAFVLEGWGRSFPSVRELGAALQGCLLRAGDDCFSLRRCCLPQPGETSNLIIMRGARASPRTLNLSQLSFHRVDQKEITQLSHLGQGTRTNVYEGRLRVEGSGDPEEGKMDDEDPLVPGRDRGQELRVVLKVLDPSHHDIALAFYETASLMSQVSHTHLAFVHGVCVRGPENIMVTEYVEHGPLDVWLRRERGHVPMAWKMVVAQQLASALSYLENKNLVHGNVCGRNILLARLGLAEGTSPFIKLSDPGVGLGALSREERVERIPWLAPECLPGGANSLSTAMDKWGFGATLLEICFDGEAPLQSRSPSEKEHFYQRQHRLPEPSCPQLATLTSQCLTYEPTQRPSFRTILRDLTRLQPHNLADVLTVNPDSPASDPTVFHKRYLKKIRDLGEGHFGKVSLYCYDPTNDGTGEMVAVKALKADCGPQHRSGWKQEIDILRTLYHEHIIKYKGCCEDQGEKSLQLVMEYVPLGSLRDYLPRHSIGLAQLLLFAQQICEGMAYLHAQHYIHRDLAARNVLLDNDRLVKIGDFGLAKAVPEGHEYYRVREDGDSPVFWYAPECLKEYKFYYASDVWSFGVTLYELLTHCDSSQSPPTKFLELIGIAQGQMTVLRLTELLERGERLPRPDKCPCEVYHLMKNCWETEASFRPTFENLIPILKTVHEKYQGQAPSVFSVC

VEGFR2 = VEGFR2 (Homo sapiens, UniProt P35968); conditions: 1 µM; binder

CAMK1G, sequence (Q96NX5 whole entry): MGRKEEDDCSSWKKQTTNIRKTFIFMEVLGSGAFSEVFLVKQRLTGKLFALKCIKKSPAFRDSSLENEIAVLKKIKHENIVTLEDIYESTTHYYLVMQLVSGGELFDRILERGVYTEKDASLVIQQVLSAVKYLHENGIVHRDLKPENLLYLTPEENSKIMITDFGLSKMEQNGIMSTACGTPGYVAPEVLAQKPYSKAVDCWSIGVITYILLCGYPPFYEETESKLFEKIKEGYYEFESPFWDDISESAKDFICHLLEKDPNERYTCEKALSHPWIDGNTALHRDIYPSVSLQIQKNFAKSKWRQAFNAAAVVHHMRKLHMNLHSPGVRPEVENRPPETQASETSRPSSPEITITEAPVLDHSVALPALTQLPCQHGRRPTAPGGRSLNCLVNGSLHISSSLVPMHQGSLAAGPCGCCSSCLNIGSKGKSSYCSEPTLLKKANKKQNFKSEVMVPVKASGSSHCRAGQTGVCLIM

`CNc1ncc2cc(-c3ccc(-c4cccc(C)n4)cc3Cl)c(=O)n(C[C@H]3OC[C@H](N)CO3)c2n1` [compound 6, G-5555] was tested. Which “Percent Control” value (ALK) did it give?
The value was 84%.

And the “Percent Control” value (CAMK1G)?
The value was 99%.

And the “Percent Control” value (CAMK2G)?
Its value is 100%.

What about the “Percent Control” value (CAMKK2) of the same compound?
The value was 100%.

And the “Percent Control” value (CHEK1)?
Its value is 100%.

And the “Percent Control” value (FLT3(D835Y))?
The value was 81%.

What about the “Percent Control” value (IRAK1) of the same compound?
Its value is 49%.

What about the “Percent Control” value (LKB1) of the same compound?
The value was 100%.

And the “Percent Control” value (MAP3K1)?
Its value is 98%.

What about the “Percent Control” value (MEK2) of the same compound?
Its value is 1.4%.

What about the “Percent Control” value (MST1R) of the same compound?
The value was 48%.

What about the “Percent Control” value (MST2) of the same compound?
The value was 27%.

And the “Percent Control” value (NEK10)?
Its value is 100%.

And the “Percent Control” value (NEK2)?
Its value is 60%.

What about the “Percent Control” value (NEK4) of the same compound?
The value was 100%.

And the “Percent Control” value (OSR1)?
Its value is 100%.

And the “Percent Control” value (PAK2)?
The value was 0%.

What about the “Percent Control” value (PHKG1) of the same compound?
Its value is 100%.

And the “Percent Control” value (PIK3CA(E545K))?
Its value is 97%.

And the “Percent Control” value (PIK3CB)?
The value was 97%.

And the “Percent Control” value (PIP4K2B)?
Its value is 87%.

What about the “Percent Control” value (PLK1) of the same compound?
The value was 94%.

What about the “Percent Control” value (PYK2) of the same compound?
The value was 100%.

And the “Percent Control” value (ROCK1)?
Its value is 100%.

What about the “Percent Control” value (RPS6KA1; Kin.Dom.1 N-terminal) of the same compound?
Its value is 69%.

And the “Percent Control” value (RPS6KA1; Kin.Dom.2 C-terminal, 1 µM)?
Its value is 81%.

And the “Percent Control” value (SBK1)?
The value was 100%.

What about the “Percent Control” value (STK39) of the same compound?
The value was 100%.

What about the “Percent Control” value (TXK) of the same compound?
Its value is 100%.

What about the “Percent Control” value (TYK2; JH1 domain catalytic) of the same compound?
The value was 74%.

What about the “Percent Control” value (TYK2; JH2 domain pseudokinase, 1 µM) of the same compound?
The value was 98%.

And the “Percent Control” value (VEGFR2)?
The value was 93%.
